Measured values from patent US20220233556A1, “COMPOSITIONS AND METHODS FOR TREATING OPHTHALMIC CONDITIONS” (Medicon Pharmaceuticals, Inc., priority 2017, published 2022).

What was measured:
[1] = Safety of topically applied PS in rabbits (slit lamp, intraocular pressure, necropsy); assay type: in vivo
Source text: The Safety of Topically Applied PS.

[2] = system: corneal sensitivity; assay: Corneal touch threshold (CTT) assay, Cochet-Bonnet aesthesiometer; assay type: in vivo, rabbits
Method: FIGS. 10A and 10B illustrate the ocular analgesic effect of PS. FIG. 10A: One drop of PS 0.5%, vehicle, or lidocaine was applied to one eye of rabbits (n=4/group) and the corneal touch threshold (CTT) was determined using an Eshesiometer. Vehicle had no effect on CTT (not shown; overlaps with the 0 value horizontal line). Values=mean±SEM. FIG. 10B: PS 0.5% in formulations differing in pH as indicated produced different analgesic responses in rabbits. The areas under each curve (AUC), indicted in the figure, that quantify these responses vary by as much as >5 fold. Values are the average of 2; all were within 11% of each other.
FIGS. 11A and 11B illustrates the effect of various concentrations of PS on corneal sensitivity determined by the corneal touch threshold (CTT) assay. The CTT score is expressed as length of filament. Measurements were performed at the indicated time points after a single application of PS as an eye drop. Rabbits with normal or dry eyes were studied (n=6 eyes per group). Dry eyes were induced by Concanavalin A injection as described in the text. The % PS content in each study is shown. The numbers in parentheses indicate the corresponding value of the area under the curve. Values=mean±SEM.
FIGS. 12A and 12B illustrate the effect of various drugs on corneal sensitivity determined by the corneal touch threshold (CTT) assay described herein. Each drug was used in its commercially available form; one eye drop of each was applied. The numbers in parentheses indicate the corresponding value of the area under the curve. Values=mean±SEM.
The analgesic effect of PS was examined on the surface of the eye by determining the corneal touch threshold (CTT) using the Luneau Cochet-Bonnet Aesthesiometer (Western Ophthalmics, Lynwood, Wash.) an adjustable nylon monofilament with a defined diameter, which is applied in different lengths to the center of the cornea.
In this embodiment, the composition of the PS preparation was: 0.5% PS, 18% (2-hydroxypropyl)-β-cyclodextrin (HP-β-CD), 1-4% Tween 80. Preparation Method: HP-β-CD was dissolved in purified water maintained in a 50° C. water bath. PS was added into this solution and kept at 50° C. overnight with stirring at 500 rpm until PS was fully dissolved. Tween 80 was added into the PS HP-β-CD solution, which was then centrifuged at 3000 rpm for 10 min to remove undissolved particles. The supernatant was collected and pH was adjusted to the desired value using a NaOH solution. The analgesic effect of PS was examined as above.
The effect of PS and other compounds on corneal sensitivity was determined in rabbits with normal or dry eyes using the CTT assay as above; DED was induced by Concanavalin A as previously described. The CTT score, expressed as filament length in mm, of normal eyes was 5.56±0.11 mm (mean±SEM for this and subsequent values) and in dry eyes 4.17±0.12 mm; the difference between the two is statistically significant (p<0.0001).

[3] = weekly during 1-month application

## CCOP(=O)(OCC)OCCCCOC(=O)CC1=C(C)/C(=C/c2ccc([S+](C)[O-])cc2)c2ccc(F)cc21 (centres unmarked) [PS, phosphosulindac]
[1]; 1-month application
  signs of uveitis: No animal developed signs of uveitis
[1]; Tonopen, 1-month application
  Intraocular pressure: remained normal
[1]; rabbits, topical
  tolerability of ocular application: very well tolerated
[1]; [3]
  slit lamp: corneal abnormalities (staining defects, vascularization, opacification, epithelial defects, stromal thinning, melts): nor were there signs of corneal abnormalities
  slit lamp: follicular/papillary response or injection of the conjunctiva: no evidence of follicular/papillary response or injection of the conjunctiva
[2]; 0.05% PS
  effect on corneal sensitivity (CTT), dry eyes: ineffective
[2]; 0.2% and 1.6% PS
  effect on corneal sensitivity (CTT), dry eyes: essentially equipotent
[2]; Con A-induced dry eyes, single eye drop
  effect on corneal sensitivity (CTT), dry eyes: restored the already suppressed ocular sensitivity
[2]; PS 0.5%, HP-β-CD formulation
  variation of AUC of analgesic response between formulations differing in pH: > 5 fold
[2]; dry eye
  duration of response of corneal sensation: less than 100 min
  onset of response of corneal sensation: ≤ 5 min
[2]; dry eyes
  time at which values returned to baseline: 100 min
[2]; naïve rabbits, single eye drop, PS 0.5%
  analgesic effect (CTT): essentially instantaneous and significant analgesia
[2]; single eye drop, various PS concentrations
  effect on corneal sensitivity (CTT), normal eyes: dose-dependent analgesic effect
